Assay results taken from patent publication US20110306503A1, “TEMPLATE-DEPENDENT NUCLEIC ACID POLYMERIZATION USING OLIGONUCLEOTIDE TRIPHOSPHATES BUILDING BLOCKS” (Yeda Research And Development Co. Ltd., priority 1999, published 2011).

Target: T1, Taq DNA polymerase (Thermus aquaticus, UniProt P19821)
T1 construct: a truncated version of Taq DNA polymerase (543 amino acids of the C-terminus part); made in house; host or cells: E. coli JM109 (pTTQ vector)
Assay: Labeled-primer extension assay
Format: biochemical
Conditions: for template-dependent incorporation: template T83, ApG3p and TpC3p together, FIG. 8 lane 2; for incorporation of complementary versus non-complementary dinucleotide: dinucleotide alone, FIG. 7 lanes 6 and 7
Method: The oligonucleotides that were used for this assay are detailed in Table 4 before. The reactions of labeled-primer extension included: polymerization buffer (40 mM Tricine-KOH, pH 8.0; 16 mM KCl; 5 mM MgCl2 and 4 μg BSA), 1 pmol template, 0.2 pmol of the p201 primer (labeled at its 5′ with P^32-γ-ATP using T4 polynucleotide kinase), 1 μM of the indicated dNTP's and 50 μM of the indicated di- or trinucleotide triphosphates in a total volume of 20 μl. The reactions were incubated for 5 minutes at 45° C., then 5 units of Taq DNA polymerase (see Example 3 for details) were added, followed by 20 minutes at 72° C. The reactions were terminated with 15 μl of stop solution (95% formamide, 20 mM EDTA and 0.05% bromophenol blue). Three μl were then separated on Urea-PAGE, and the radiolabeled DNA-bands were detected by phosphoimaging.

T1 sequence (P19821 290-832 limits assumed): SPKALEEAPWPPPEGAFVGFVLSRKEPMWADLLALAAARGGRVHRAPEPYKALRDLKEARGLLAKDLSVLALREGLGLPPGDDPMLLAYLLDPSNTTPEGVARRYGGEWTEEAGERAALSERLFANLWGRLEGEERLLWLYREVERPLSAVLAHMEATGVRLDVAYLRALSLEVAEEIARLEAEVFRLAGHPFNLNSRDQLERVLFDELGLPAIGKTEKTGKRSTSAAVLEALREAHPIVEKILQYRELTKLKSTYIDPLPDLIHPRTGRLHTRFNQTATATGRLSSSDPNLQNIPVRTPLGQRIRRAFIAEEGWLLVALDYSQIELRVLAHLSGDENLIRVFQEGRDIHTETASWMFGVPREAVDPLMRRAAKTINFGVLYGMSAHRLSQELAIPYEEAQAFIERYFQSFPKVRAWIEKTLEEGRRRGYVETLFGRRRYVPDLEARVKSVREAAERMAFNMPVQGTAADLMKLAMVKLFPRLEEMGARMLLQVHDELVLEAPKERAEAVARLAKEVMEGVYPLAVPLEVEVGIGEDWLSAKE

Compound | template-dependent incorporation | incorporation of complementary versus non-complementary dinucleotide (template T24) | also measured
Nc1nc2c(ncn2[C@H]2C[C@H](O)[C@@H](COP(=O)(O)O[C@H]3C[C@H](n4cnc5c(N)ncnc54)O[C@@H]3CO)O2)c(=O)[nH]1 [ApG3p, 2′-deoxyadenylyl(3′-5′)-2′-deoxyguanosine] | template-dependent incorporation |  | 
Nc1ccn([C@H]2C[C@H](OP(=O)(O)OC[C@H]3O[C@@H](n4ccc(N)nc4=O)C[C@@H]3O)[C@@H](CO)O2)c(=O)n1 [CpC3p, 2′-deoxycytidylyl(3′-5′)-2′-deoxycytidine] |  | Only the complementary dinucleotide (CpA3p) seems to be incorporated | 
thymidylyl-3′-5′-thymidylyl-3′-5′-thymidine (DNA TTT; DNA, phosphodiester; triphosphate form of the trinucleotide, triphosphate end not given here, further chemistry not fully specified) [TpTpT3p] |  |  | template-dependent incorporation in a mix with dCTP and dATP (template T24, FIG. 7 lanes 4 and 5): utilized
Cc1cn([C@H]2C[C@H](OP(=O)(O)OC[C@H]3O[C@@H](n4ccc(N)nc4=O)C[C@@H]3O)[C@@H](CO)O2)c(=O)[nH]c1=O [TpC3p, thymidylyl(3′-5′)-2′-deoxycytidine] | template-dependent incorporation |  | 
Nc1ccn([C@H]2C[C@H](OP(=O)(O)OC[C@H]3O[C@@H](n4cnc5c(N)ncnc54)C[C@@H]3O)[C@@H](CO)O2)c(=O)n1 [CpA3p, 2′-deoxycytidylyl(3′-5′)-2′-deoxyadenosine] |  | seems to be incorporated | template-dependent incorporation onto 3′ end of labeled primer p201 (templates T80 and T81, 50 μM dinucleotide triphosphates, FIG. 6 lanes 3-7): correct incorporation; efficiency of incorporation compared to the natural dNTP's (templates T80 and T81, FIG. 6 lanes 3-7 vs lane 2): lower efficiency
